Laboratory results published in the supplement of paper PMC10307832.

What was measured:
Assay in all cases: relative viability (nuclei count vs DMSO), 5 days (fraction); higher = more cells survive
[1] = tested on: NCI-H1666; settings: first compound 1 µM
In short: (§1)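 Cells from lung cancer lines were seeded into 1536-well plates and, one day later, dosed by pin tool. Treatments were either a single drug or a fixed dose of an anchor drug with five library-drug doses (not always all listed) in √10 steps. After 5 days, nuclei were stained in a one-step fixation (final 0.05% Triton X-100, 1% formaldehyde, 1 ug/ml Hoechst) and counted on 4× images, and relative viability is the treated-to-vehicle nuclei ratio, as the median of duplicate plates.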

[2] = tested on: NCI-H1944
In short: as §1

[3] = tested on: NCI-H1975
In short: as §1

[4] = tested on: NCI-H2087
In short: as §1

[5] = tested on: NCI-H2342
In short: as §1

[6] = tested on: NCI-H358
In short: as §1

[7] = tested on: NCI-H596
In short: as §1

[8] = tested on: NCI-H650
In short: as §1

[9] = tested on: NCI-H661
In short: as §1

[10] = tested on: NCI-H838
In short: as §1

[11] = tested on: PC-3 [JPC-3]
In short: as §1

[12] = tested on: SK-MES-1
In short: as §1

SMILES: CCN(CC)CCCCNc1ncc2cc(-c3cc(OC)cc(OC)c3)c(NC(=O)NC(C)(C)C)nc2n1 + Nc1ncn([C@H]2C[C@H](O)[C@@H](CO)O2)c(=O)n1 [Decitabine] (partner 2 µM)
- relative viability [1]: 0.79
- relative viability ([2]; first compound 0.01 µM): 0.489
- relative viability ([2]; first compound 0.03162 µM): 0.435
- relative viability ([2]; first compound 0.1 µM): 0.427
- relative viability ([2]; first compound 0.3162 µM): 0.489
- relative viability ([2]; first compound 1 µM): 0.477
- relative viability ([3]; first compound 0.01 µM): 0.396
- relative viability ([3]; first compound 0.03162 µM): 0.395
- relative viability ([3]; first compound 0.1 µM): 0.381
- relative viability ([3]; first compound 0.3162 µM): 0.389
- relative viability ([3]; first compound 1 µM): 0.358
- relative viability ([4]; first compound 0.01 µM): 0.314
- relative viability ([4]; first compound 0.03162 µM): 0.29
- relative viability ([4]; first compound 0.1 µM): 0.302
- relative viability ([4]; first compound 0.3162 µM): 0.284
- relative viability ([4]; first compound 1 µM): 0.317
- relative viability ([5]; first compound 0.01 µM): 0.692
- relative viability ([5]; first compound 0.03162 µM): 0.668
- relative viability ([5]; first compound 0.1 µM): 0.697
- relative viability ([5]; first compound 0.3162 µM): 0.781
- relative viability ([5]; first compound 1 µM): 0.807
- relative viability ([6]; first compound 0.01 µM): 0.199
- relative viability ([6]; first compound 0.03162 µM): 0.235
- relative viability ([6]; first compound 0.1 µM): 0.227
- relative viability ([6]; first compound 0.3162 µM): 0.24
- relative viability ([6]; first compound 1 µM): 0.19
- relative viability ([7]; first compound 0.03162 µM): 1.15
- relative viability ([7]; first compound 0.1 µM): 1.03
- relative viability ([7]; first compound 0.3162 µM): 1.01
- relative viability ([7]; first compound 1 µM): 0.893
- relative viability ([8]; first compound 0.01 µM): 0.14
- relative viability ([8]; first compound 0.03162 µM): 0.272
- relative viability ([8]; first compound 0.1 µM): 0.33
- relative viability ([8]; first compound 0.3162 µM): 0.332
- relative viability ([8]; first compound 1 µM): 0.326
- relative viability ([9]; first compound 0.01 µM): 0.534
- relative viability ([9]; first compound 0.03162 µM): 0.529
- relative viability ([9]; first compound 0.1 µM): 0.572
- relative viability ([9]; first compound 0.3162 µM): 0.573
- relative viability ([9]; first compound 1 µM): 0.455
- relative viability ([10]; first compound 0.01 µM): 0.481
- relative viability ([10]; first compound 0.03162 µM): 0.484
- relative viability ([10]; first compound 0.1 µM): 0.428
- relative viability ([10]; first compound 0.3162 µM): 0.422
- relative viability ([10]; first compound 1 µM): 0.418
- relative viability ([11]; first compound 0.03162 µM): 0.708
- relative viability ([11]; first compound 0.1 µM): 0.928
- relative viability ([11]; first compound 0.3162 µM): 0.851
- relative viability ([11]; first compound 1 µM): 0.804
- relative viability ([12]; first compound 0.01 µM): 0.435
- relative viability ([12]; first compound 0.03162 µM): 0.425
- relative viability ([12]; first compound 0.1 µM): 0.366
- relative viability ([12]; first compound 0.3162 µM): 0.318
- relative viability ([12]; first compound 1 µM): 0.356
